# According to patent US20240246980A1, “MODULATORS OF MAS-RELATED G-PROTEIN RECEPTOR D AND RELATED PRODUCTS AND METHODS” (Escient Pharmaceuticals, Inc., priority 2022, published 2024):
# Target: human MRGPRD (Homo sapiens, UniProt Q8TDS7)
# Test: MRGPRD antagonist activity, IP-One HTRF assay in CHO cells stably expressing human MRGPRD (versus 100 μM β-Alanine agonist)
# Type: cell-based
# Protocol: Chinese Hamster Ovary (CHO) cells stably expressing human MRGPRD (Eurofins, San Diego CA) were plated in a 384-well plate at 20,000 cells per well in 12 μL of Optimem (Fisher Scientific 11-058-021). Plates were kept in the incubator at 37° C. overnight. Antagonists were solubilized at a concentration of 10 mM in DMSO, and the agonists were solubilized to stock concentrations of either 50 mM in H2O (β-Alanine) or 10 mM in DMSO (all others) and then diluted in assay buffer (final concentrations of 5.7 mM Tris-HCl, 43 mM NaCl, 50 mM LiCl, pH=8). The concentration of DMSO was normalized across the plate. Antagonists were added to the plate using a Tecan D300 Digital Dispenser at nanoliter/picoliter volumes and 2 μL of agonists in assay buffer were added to each well for a final assay volume of 14 μL. Plates were covered and incubated for 1 h at 37° C. and then for 1 h at room temperature. IP-1 standards and HTRF detection reagents were added according to an IP-One-Gq Kit purchased from Cisbio (part number 62IPAPEJ) and incubated in the dark for 1 h at room temperature. Assay plates were read on either a Molecular Devices SpectraMax iD5 plate reader or a BMG ClarioStar plate reader. The HTRF ratio was calculated form the raw data and graphed using GraphPad Prism to calculate IC50 values. Data are expressed as average IC50 values and average percent antagonism calculated as a percent of the maximum efficacy response. For these studies, the variability of the data was assessed by determining the standard error of mean (SEM).
# The activity ranges are denoted as follows: “+++++” denotes antagonist activity <100 nM; “++++” denotes antagonist activity between 100 and 500 nM; “+++” denotes activity between 500 and 1000 nM; “++” denotes activity between 1000 and 3000 nM; and “+” denotes activity >3000 nM.
# Sequence of human MRGPRD (Q8TDS7 whole entry): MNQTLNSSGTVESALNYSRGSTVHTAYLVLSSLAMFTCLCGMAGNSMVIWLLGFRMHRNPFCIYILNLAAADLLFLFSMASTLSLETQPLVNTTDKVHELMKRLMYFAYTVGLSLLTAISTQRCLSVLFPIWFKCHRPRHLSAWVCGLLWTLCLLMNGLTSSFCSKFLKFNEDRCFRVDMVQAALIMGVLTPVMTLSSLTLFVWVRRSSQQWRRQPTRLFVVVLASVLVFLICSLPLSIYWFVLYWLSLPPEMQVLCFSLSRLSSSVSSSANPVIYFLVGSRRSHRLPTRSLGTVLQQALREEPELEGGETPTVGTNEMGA
row,SMILES,IC50 [µM]
1,COc1ccc(NC(=O)N2CCC[C@H](c3nc(-c4cccc(OC)c4)c4ccccn34)C2)cc1 (stereo in doubt) [Compound 5-29],1 to 3
2,COc1cccc(-c2nc([C@@H]3CCCN(C(=O)Nc4ccc(N5CCCC5)cc4)C3)n3ccccc23)c1 [Compound 1-1],0.1 to 0.5
3,"COc1cccc(-c2nc([C@@H]3CCCN(C(=O)Nc4ccc(N(C)C)cc4)C3)n3ccccc23)c1 [Compound 1-2, (R)—N-(4-(dimethylamino)phenyl)-3-(1-(3-methoxyphenyl)imidazo[1,5-a]pyridin-3-yl)piperidine-1-carboxamide]",< 0.1
4,COc1cccc(-c2nc(C3CCCN(C(=O)N(C)c4ccccc4F)C3)n3ccccc23)c1 (centres unmarked) [Compound 1-3],1 to 3
5,COc1cccc(-c2nc(C3CCCN(C(=O)N(C)c4cccc(F)c4)C3)n3ccccc23)c1 (centres unmarked) [Compound 1-4],0.5 to 1
6,COc1cccc(-c2nc([C@H]3CCCN(C(=O)Nc4ccc(N(C)C)cc4)C3)n3ccccc23)c1 [Compound 1-5],1 to 3
7,COc1cccc(-c2nc([C@@H]3CCCN(C(=O)Nc4ccc(N(C)C)c(F)c4)C3)n3ccccc23)c1 [Compound 1-6],< 0.1
8,COc1cccc(-c2nc([C@@H]3CCCN(C(=O)Nc4ccc(N(C)C)c(C)c4)C3)n3ccccc23)c1 [Compound 1-7],< 0.1
9,COc1cccc(-c2nc([C@@H]3CCCN(C(=O)Nc4ccc(N(C)C)cc4C)C3)n3ccccc23)c1 [Compound 1-8],< 0.1
10,COc1cccc(NC(=O)N2CCC[C@@H](c3nc(-c4cccc(OC)c4)c4ccccn34)C2)c1 [Compound 1-9],< 0.1
11,COc1cccc(-c2nc([C@@H]3CCCN(C(=O)Nc4ccc(C)c(C)c4)C3)n3ccccc23)c1 [Compound 1-10],0.1 to 0.5
12,COc1cccc(-c2nc([C@@H]3CCCN(C(=O)Nc4ccc(C)cc4F)C3)n3ccccc23)c1 [Compound 1-11],0.1 to 0.5
13,CCc1ccc(NC(=O)N2CCC[C@@H](c3nc(-c4cccc(OC)c4)c4ccccn34)C2)cc1 [Compound 1-12],< 0.1
14,COc1cccc(-c2nc([C@@H]3CCCN(C(=O)Nc4cccc(C)c4)C3)n3ccccc23)c1 [Compound 1-13],0.1 to 0.5
15,COc1cccc(-c2nc([C@@H]3CCCN(C(=O)Nc4cccc(F)c4)C3)n3ccccc23)c1 [Compound 1-14],0.1 to 0.5
16,COc1cccc(-c2nc([C@@H]3CCCN(C(=O)Nc4ccccc4C(F)(F)F)C3)n3ccccc23)c1 [Compound 1-15],0.1 to 0.5
17,COc1cccc(-c2nc([C@@H]3CCCN(C(=O)Nc4cccc(C#N)c4)C3)n3ccccc23)c1 [Compound 1-16],0.1 to 0.5
18,COc1ccc(NC(=O)N2CCC[C@@H](c3nc(-c4cccc(OC)c4)c4ccccn34)C2)cc1 [Compound 1-17],< 0.1
19,COc1cccc(-c2nc([C@@H]3CCCN(C(=O)Nc4ccc(C)cc4)C3)n3ccccc23)c1 [Compound 1-18],0.1 to 0.5
20,CCN(CC)c1ccc(NC(=O)N2CCC[C@@H](c3nc(-c4cccc(OC)c4)c4ccccn34)C2)cc1 [Compound 1-19],< 0.1
21,COc1cccc(-c2nc([C@@H]3CCCN(C(=O)Nc4ccc(C(=O)N(C)C)cc4)C3)n3ccccc23)c1 [Compound 1-20],< 0.1

row,SMILES,IC50 [µM]
1,COc1cccc(-c2nc([C@@H]3CCCN(C(=O)Nc4ccccc4CN(C)C)C3)n3ccccc23)c1 [Compound 1-21],0.5 to 1
2,COc1cccc(-c2nc([C@@H]3CCCN(C(=O)Nc4cccc(C(F)(F)F)c4)C3)n3ccccc23)c1 [Compound 1-22],0.5 to 1
3,COc1cccc(-c2nc([C@@H]3CCCN(C(=O)Nc4cccc(OC(F)(F)F)c4)C3)n3ccccc23)c1 [Compound 1-23],0.5 to 1
4,CCOc1cccc(NC(=O)N2CCC[C@@H](c3nc(-c4cccc(OC)c4)c4ccccn34)C2)c1 [Compound 1-24],< 0.1
5,CCOc1ccc(NC(=O)N2CCC[C@@H](c3nc(-c4cccc(OC)c4)c4ccccn34)C2)cc1 [Compound 1-25],< 0.1
6,COc1cccc(-c2nc([C@@H]3CCCN(C(=O)Nc4ccc(CN(C)C)cc4)C3)n3ccccc23)c1 [Compound 1-26],0.1 to 0.5
7,COc1cccc(-c2nc([C@@H]3CCCN(C(=O)NCCCN(C)C)C3)n3ccccc23)c1 [Compound 1-27],0.5 to 1
8,COc1cccc(-c2nc([C@@H]3CCCN(C(=O)Nc4nc(C(C)C)ns4)C3)n3ccccc23)c1 [Compound 1-28],0.1 to 0.5
9,COc1cccc(-c2nc([C@@H]3CCCN(C(=O)NCCN(C)C)C3)n3ccccc23)c1 [Compound 1-29],0.5 to 1
10,COc1cccc(-c2nc([C@@H]3CCCN(C(=O)Nc4ccon4)C3)n3ccccc23)c1 [Compound 1-30],0.1 to 0.5
11,COc1cccc(-c2nc([C@@H]3CCCN(C(=O)Nc4ccc5ccccc5c4)C3)n3ccccc23)c1 [Compound 1-31],0.1 to 0.5
12,COc1cccc(-c2nc([C@@H]3CCCN(C(=O)Nc4ccc5c(cnn5C)c4)C3)n3ccccc23)c1 [Compound 1-32],< 0.1
13,COc1cccc(-c2nc([C@@H]3CCCN(C(=O)Nc4noc(C)c4C)C3)n3ccccc23)c1 [Compound 1-33],< 0.1
14,"CNC(=O)N1CCC[C@@H](c2nc(-c3cccc(OC)c3)c3ccccn23)C1 [Compound 2-1, (R)-3-(1-(3-methoxyphenyl)imidazo[1,5-a]pyridin-3-yl)-N-methylpiperidine-1-carboxamide]",> 3
15,CNC(=O)N1CCC[C@H](c2nc(-c3cccc(OC)c3)c3ccccn23)C1 [Compound 2-2],> 3
16,COc1cccc(-c2nc(C3CCCN(C(=O)Nc4ccc(F)cc4)C3)n3ccccc23)c1 (centres unmarked) [Compound 3-1],0.1 to 0.5
17,COc1cccc(-c2nc(C3CCCN(C(=O)Nc4cccc(C)c4)C3)n3ccccc23)c1 (centres unmarked) [Compound 3-2],0.1 to 0.5
18,COc1cccc(-c2nc(C3CCCN(C(=O)Nc4cccc(F)c4)C3)n3ccccc23)c1 (centres unmarked) [Compound 3-3],0.1 to 0.5
19,COc1cccc(-c2nc(C3CCCN(C(=O)Nc4ccccc4C)C3)n3ccccc23)c1 (centres unmarked) [Compound 3-4],1 to 3
20,COc1cccc(-c2nc(C3CCCN(C(=O)Nc4ccc(C)cc4)C3)n3ccccc23)c1 (centres unmarked) [Compound 3-5],0.1 to 0.5
21,COc1cccc(-c2nc(C3CCCN(C(=O)Nc4ccccc4)C3)n3ccccc23)c1 (centres unmarked) [Compound 3-6],0.1 to 0.5

row,SMILES,IC50 [µM]
1,COc1cccc(-c2nc(C3CCCN(C(=O)Nc4ccccc4Cl)C3)n3ccccc23)c1 (centres unmarked) [Compound 3-7],0.5 to 1
2,COc1cccc(-c2nc(C3CCCN(C(=O)Nc4ccccc4OC)C3)n3ccccc23)c1 (centres unmarked) [Compound 3-8],0.1 to 0.5
3,CCNC(=O)N1CCCC(c2nc(-c3cccc(OC)c3)c3ccccn23)C1 (centres unmarked) [Compound 3-9],0.1 to 0.5
4,COc1cccc(-c2nc(C3CCCN(C(=O)NC(C)(C)C)C3)n3ccccc23)c1 (centres unmarked) [Compound 3-10],0.5 to 1
5,COc1cccc(-c2nc(C3CCCN(C(=O)NC4CC4)C3)n3ccccc23)c1 (centres unmarked) [Compound 3-11],> 3
6,COc1cccc(-c2nc(C3CCCN(C(=O)Nc4ccc(OC)cc4C)C3)n3ccccc23)c1 (centres unmarked) [Compound 3-12],0.1 to 0.5
7,CNC(=O)N1CCCC(c2nc(-c3cccc(OC)c3)c3ccccn23)C1 (centres unmarked) [Compound 3-13],> 3
8,COc1cccc(-c2nc(C3CCCN(C(=O)NCC4CC4)C3)n3ccccc23)c1 (centres unmarked) [Compound 3-14],> 3
9,CCc1ccccc1NC(=O)N1CCCC(c2nc(-c3cccc(OC)c3)c3ccccn23)C1 (centres unmarked) [Compound 3-15],> 3
10,COc1cccc(NC(=O)N2CCCC(c3nc(-c4cccc(OC)c4)c4ccccn34)C2)c1 (centres unmarked) [Compound 3-16],0.1 to 0.5
11,COc1cccc(-c2nc(C3CCCN(C(=O)Nc4cccc(Cl)c4)C3)n3ccccc23)c1 (centres unmarked) [Compound 3-17],0.5 to 1
12,CCc1cccc(NC(=O)N2CCCC(c3nc(-c4cccc(OC)c4)c4ccccn34)C2)c1 (centres unmarked) [Compound 3-18],> 3
13,COc1ccc(NC(=O)N2CCCC(c3nc(-c4cccc(OC)c4)c4ccccn34)C2)cc1 (centres unmarked) [Compound 3-19],0.1 to 0.5
14,COc1cccc(-c2nc(C3CCCN(C(=O)Nc4ccc(Cl)cc4)C3)n3ccccc23)c1 (centres unmarked) [Compound 3-20],0.5 to 1
15,COc1cccc(-c2nc(C3CCCN(C(=O)Nc4cccc(C#N)c4)C3)n3ccccc23)c1 (centres unmarked) [Compound 3-21],0.1 to 0.5
16,CCc1ccc(NC(=O)N2CCCC(c3nc(-c4cccc(OC)c4)c4ccccn34)C2)cc1 (centres unmarked) [Compound 3-22],0.1 to 0.5
17,COc1cccc(-c2nc(C3CCCN(C(=O)Nc4ccc(C)c(C)c4)C3)n3ccccc23)c1 (centres unmarked) [Compound 3-23],0.1 to 0.5
18,COc1cccc(-c2nc(C3CCCN(C(=O)Nc4cccc(N(C)C)c4)C3)n3ccccc23)c1 (centres unmarked) [Compound 3-24],0.1 to 0.5
19,"COc1cccc(-c2nc(C3CCCN(C(=O)Nc4ccc(N(C)C)cc4)C3)n3ccccc23)c1 (centres unmarked) [Compound 3-25, N-(4-(dimethylamino)phenyl)-3-(1-(3-methoxyphenyl)imidazo[1,5-a]pyridin-3-yl)piperidine-1-carboxamide]",< 0.1
20,COc1cccc(-c2nc(C3CCCN(C(=O)Nc4cccc(OC)c4C)C3)n3ccccc23)c1 (centres unmarked) [Compound 3-26],0.1 to 0.5
